This note sets out measurements from US20130266535A1, “METHYL SALICYLATE-BASED ATTRACTANTS FOR VECTORS OF CITRUS GREENING DISEASE” (priority 2012, published 2013).

This assay deals with Diaphorina citri. Kind of assay: Two-port T-olfactometer behavioral bioassay with synthetic chemicals vs. clean air (solvent-only wick). It is filed as in vivo. The conditions noted are these: for Proportion of D. citri responding to treatment arm: non-infected female adults, treatment vs solvent control arm. From the text: A custom designed two-port divided T-olfactometer [Analytical Research Systems (ARS), Inc. Gainesville, Fla.] that has been thoroughly described in [98] was used to evaluate behavioral response of D. citri. Briefly, the olfactometer consisted of a 30 cm long glass tube with 3.5 cm internal diameter that is bifurcated into two equal halves with a Teflon strip forming a T-maze. Each half served as an arm of the olfactometer enabling the D. citri to make a choice between two potential odor fields. The olfactometer arms were connected to odor sources placed in 35 cm tall×15 cm wide dome shaped guillotine volatile collection chambers (GVCC) (ARS, Gainesville, Fla.) through Teflon-glass tube connectors. The odor sources comprised 14-16 week old Las-infected or non-infected C. sinensis plants placed in GVCC. Purified and humidified air was pushed through the GVCC via two pumps connected to an air delivery system (ARS, Gainesville, Fla.). A constant airflow of 0.1 L/min was maintained through both arms of the olfactometer. The olfactometer was housed within a temperature-controlled room and positioned vertically under a fluorescent 900-lux light bulb within a fiberboard box for uniform light diffusion. This positioning took advantage of the negative geotactic and positive phototactic response of D. citri.
D. citri adults were released individually into the inlet adapter at the base of the olfactometer. An odor source was randomly assigned to one of the arms of the olfactometer at the beginning of each bioassay and was reversed after every 30 insects to eliminate positional bias. Initially, D. citri adults were exposed to clean air vs. clean air in the olfactometer to verify the absence of positional bias. Thereafter, the behavioral response of non-infected or Las-infected D. citri was tested against non-infected versus Las-infected plants. D. citri adults were also exposed to non-infected grafted (sham grafted) vs. non-grafted-non-infected plants to determine the effects of grafting only on D. citri behavior. For each treatment, C. sinensis plants were grafted with C. aurantifolia budwood four months prior to initiating behavioral experiments. A minimum of 150 male or female D. citri adults were examined per treatment combination (five replications of 30 D. citri). Each D. citri that responded to odors was individually subjected to qPCR to determine Las infection status using the procedures described above.
MeSA was released in greater quantities from Las-infected plants than non-infected plants, while MeAN and D-limonene were released in greater quantities by non-infected than infected plants (See results). Therefore, the behavioral response of D. citri to these synthetic chemicals was tested. A known D. citri attractant, β-ocimene, was used as a positive control. All chemicals were obtained from Sigma Aldrich (St Louis, Mo.) with purities ranging between 97 and 99%. Purity of β-ocimene was 90% and contained a mixture of isomers comprising 20-25% limonene. Each treatment was dissolved in 100 μl of dichloromethane and pipetted onto a 2 cm Richmond cotton wick (Petty John Packaging, Inc. Concord, N.C.) at 0.001, 0.01, 0.1, 1.0, 10.0 and 100.0 μg dosages. The control treatment consisted of a cotton wick impregnated with solvent only. The solvent from both treatments was allowed to evaporate within a fume hood for 30 min prior to assays. The bioassay procedures with synthetic chemicals were identical to those described earlier for plant samples. However, in this case, treatments (odor sources) were placed into solid phase micro extraction chambers (SPMEC) (ARS, Gainesville, Fla.) instead of the GVCC described above. The SPMEC consists of a straight glass tube (17.5 cm long×2.5 cm internal diameter) supported with an inlet and outlet valve for incoming and outgoing air streams, respectively. […]

For `C=C(C)[C@H]1CC=C(C)CC1` [D-limonene], where the note is “100 μg dosage”, the “Behavioral response of D. citri (attraction/repulsion)” value is on record as “attracted”. Also, the “Proportion of D. citri responding to treatment arm” value (“Proportion of D. citri responding” for short) runs as follows: (dosage 0.001 μg on cotton wick) 56.06; (dosage 0.01 μg on cotton wick) 60.87; (dosage 0.1 μg on cotton wick) 54.39; (dosage 1.0 μg on cotton wick) 54.65; (dosage 10.0 μg on cotton wick) 60.24; (dosage 100.0 μg on cotton wick) 61.54.

For the compound `COC(=O)c1ccccc1O` [Methyl salicylate, methyl salicylate], the “Behavioral response of D. citri (attraction/repulsion)” value is “attracted” (0.001 μg dosage) and “repelled” (100 μg dosage). In addition, the “Proportion of D. citri responding” value is listed as 54.00 (dosage 0.001 μg on cotton wick); 60.44 (dosage 0.01 μg on cotton wick); 54.76 (dosage 0.1 μg on cotton wick); 45.12 (dosage 1.0 μg on cotton wick); 41.03 (dosage 10.0 μg on cotton wick); 39.56 (dosage 100.0 μg on cotton wick).

For `C=CC(C)=CCC=C(C)C` [β-ocimene, reference compound], for the setting “1-100 μg dosages”, the “Behavioral response of D. citri (attraction/repulsion)” value is on record as “attractive”. The “Proportion of D. citri responding” value is reported as 52.22 (dosage 0.001 μg on cotton wick); 54.46 (dosage 0.01 μg on cotton wick); 53.19 (dosage 0.1 μg on cotton wick); 60.44 (dosage 1.0 μg on cotton wick); 61.46 (dosage 10.0 μg on cotton wick); 62.77 (dosage 100.0 μg on cotton wick).

For `COC(=O)c1ccccc1N` [Methyl anthranilate, methyl anthranilate], the “Behavioral response of D. citri (attraction/repulsion)” value (any of the dosages tested (0.001-100 μg)) is on record as “did not attract or repel”. Also, the “Proportion of D. citri responding” value runs as follows: (dosage 0.001 μg on cotton wick) 58.06; (dosage 0.01 μg on cotton wick) 57.14; (dosage 0.1 μg on cotton wick) 61.76; (dosage 1.0 μg on cotton wick) 57.33; (dosage 10.0 μg on cotton wick) 56.10; (dosage 100.0 μg on cotton wick) 52.27.
